Test results reported in patent publication US12208092B2, “Compositions and methods for administering paltusotine to patients with hepatic impairment” (CRINETICS PHARMACEUTICALS, INC., priority 2023, dated 2025).

Experiment: Phase 1 hepatic impairment study, safety (TEAEs) after single oral 20 mg tablet
[1] = normal hepatic function (N = 14)
[2] = severe hepatic impairment (N = 6)

Experimental: The secondary objective of the study was to assess the safety and tolerability of a single dose of paltusotine in subjects with varying degrees of hepatic impairment.
Safety and tolerability were assessed by the following endpoints: reported adverse events (AEs), clinical laboratory test results (hematology, coagulation, serum chemistry, and urinalysis), vital sign measurements, and 12-lead electrocardiogram results
All 36 subjects who were enrolled in the study received all planned single doses of paltusotine 20 mg (1×20 mg tablet) and were included in the safety and PK analysis populations.

With N#Cc1cccc(-c2ccc3ncc(-c4cc(F)cc(F)c4)c(N4CCC(N)CC4)c3c2)c1O [paltusotine, 3-[4-(4-amino-1-piperidyl)-3-(3,5-difluorophenyl)-6-quinolyl]-2-hydroxybenzonitrile] the “TEAE SOC Gastrointestinal disorders, number of occurrences” value [1] was 5, the “TEAE SOC Gastrointestinal disorders, subjects n (%)” value [1] was 4 (28.6%) and the “TEAE SOC General disorders and administration site conditions, subjects n (%)” value [1] was 0. The “TEAE SOC Infections and infestations, subjects n (%)” value [1] was 0, the “TEAE SOC Nervous system disorders, number of occurrences” value [1] was 1 and the “TEAE SOC Nervous system disorders, subjects n (%)” value [1] was 1 (7.1%). The “TEAE SOC Renal and urinary disorders, subjects n (%)” value [1] was 0, the “TEAEs Not Related to study drug (strongest relationship), subjects n (%)” value (shortened to “TEAEs Not Related to study drug … (%)”) [1] was 1 (7.1%) and the “TEAEs Not Related to study drug, number of occurrences” value [1] was 1. For the same compound, the “TEAEs Related to study drug (strongest relationship), subjects n (%)” value [1] was 3 (21.4%), the “TEAEs Related to study drug, number of occurrences” value (“TEAEs Related to study drug, number” for short) [1] was 5 and the “TEAEs by maximum severity: Mild, number of occurrences” value (from here on “TEAEs … Mild, number of occurrences”) [1] was 5. For the same compound, the “TEAEs by maximum severity: Mild, subjects n (%)” value (from here on “TEAEs … Mild, subjects n (%)”) [1] was 3 (21.4%), the “TEAEs by maximum severity: Moderate, number of occurrences” value (shortened to “TEAEs … Moderate, number of occurrences”) [1] was 1 and the “TEAEs by maximum severity: Moderate, subjects n (%)” value (shortened to “TEAEs … Moderate, subjects n (%)”) [1] was 1 (7.1%). The “TEAEs by maximum severity: Severe, subjects n (%)” value (“TEAEs … Severe, subjects n (%)” below) [1] was 0, the “Total number of SAEs reported” value [1] was 0 and the “Total number of TEAEs reported” value [1] was 6. For the same compound, the “Any SAEs, number of occurrences” value (overall (N = 36)) was 1, the “Any TEAE, number of occurrences” value (overall (N = 36)) was 17 and the “Related TEAE Abdominal discomfort, number of occurrences” value (overall (N = 36)) was 1. For the same compound, the “Related TEAE Abdominal discomfort, subjects n (%)” value (overall (N = 36)) was 1 (2.8%), the “Related TEAE Diarrhea, number of occurrences” value (overall (N = 36)) was 5 and the “Related TEAE Diarrhea, subjects n (%)” value (overall (N = 36)) was 5 (13.9%). For the same compound, the “Related TEAE Epigastric discomfort, number of occurrences” value (overall (N = 36)) was 1, the “Related TEAE Epigastric discomfort, subjects n (%)” value (overall (N = 36)) was 1 (2.8%) and the “Related TEAE Fatigue, number of occurrences” value (overall (N = 36)) was 1. For the same compound, the “Related TEAE Fatigue, subjects n (%)” value (overall (N = 36)) was 1 (2.8%), the “Related TEAE Haematuria, number of occurrences” value (overall (N = 36)) was 1 and the “Related TEAE Haematuria, subjects n (%)” value (overall (N = 36)) was 1 (2.8%). For the same compound, the “Related TEAE Headache, number of occurrences” value (overall (N = 36)) was 1, the “Related TEAE Headache, subjects n (%)” value (overall (N = 36)) was 1 (2.8%) and the “Related TEAE Neutropenia, number of occurrences” value (overall (N = 36)) was 1. The “Related TEAE Neutropenia, subjects n (%)” value (overall (N = 36)) was 1 (2.8%), the “Related TEAE Pain, number of occurrences” value (overall (N = 36)) was 1 and the “Related TEAE Pain, subjects n (%)” value (overall (N = 36)) was 1 (2.8%). For the same compound, the “Related TEAE Paraesthesia, number of occurrences” value (overall (N = 36)) was 1, the “Related TEAE Paraesthesia, subjects n (%)” value (overall (N = 36)) was 1 (2.8%) and the “SAEs Not related to study drug (strongest relationship), subjects n (%)” value (overall (N = 36)) was 1 (2.8%). The “SAEs Not related to study drug, number of occurrences” value (overall (N = 36)) was 1, the “SAEs Related to study drug (strongest relationship), subjects” value (overall (N = 36)) was 0 and the “Subjects reporting any SAEs, subjects n (%)” value (overall (N = 36)) was 1 (2.8%). For the same compound, the “TEAE Abdominal discomfort, number of occurrences” value (overall (N = 36)) was 1, the “TEAE Abdominal discomfort, subjects n (%)” value (overall (N = 36)) was 1 (2.8%) and the “TEAE COVID-19, number of occurrences” value (overall (N = 36)) was 1. The “TEAE COVID-19, subjects n (%)” value (overall (N = 36)) was 1 (2.8%), the “TEAE Death, number of occurrences” value (overall (N = 36)) was 1 and the “TEAE Death, subjects n (%)” value (overall (N = 36)) was 1 (2.8%). For the same compound, the “TEAE Diarrhea, number of occurrences” value (overall (N = 36)) was 6, the “TEAE Diarrhea, subjects n (%)” value (overall (N = 36)) was 6 (16.7%) and the “TEAE Epigastric discomfort, number of occurrences” value (overall (N = 36)) was 1. The “TEAE Epigastric discomfort, subjects n (%)” value (overall (N = 36)) was 1 (2.8%), the “TEAE Fatigue, number of occurrences” value (overall (N = 36)) was 1 and the “TEAE Fatigue, subjects n (%)” value (overall (N = 36)) was 1 (2.8%). The “TEAE Haematuria, number of occurrences” value (overall (N = 36)) was 1, the “TEAE Haematuria, subjects n (%)” value (overall (N = 36)) was 1 (2.8%) and the “TEAE Headache, number of occurrences” value (overall (N = 36)) was 2. The “TEAE Headache, subjects n (%)” value (overall (N = 36)) was 2 (5.6%), the “TEAE Neutropenia, number of occurrences” value (overall (N = 36)) was 1 and the “TEAE Neutropenia, subjects n (%)” value (overall (N = 36)) was 1 (2.8%). For the same compound, the “TEAE Pain, number of occurrences” value (overall (N = 36)) was 1, the “TEAE Pain, subjects n (%)” value (overall (N = 36)) was 1 (2.8%) and the “TEAE Paraesthesia, number of occurrences” value (overall (N = 36)) was 1. The “TEAE Paraesthesia, subjects n (%)” value (overall (N = 36)) was 1 (2.8%), the “TEAE SOC Blood and lymphatic system disorders, number of occurrences” value (overall (N = 36)) was 1 and the “TEAE SOC Blood and lymphatic system disorders, subjects n (%)” value (overall (N = 36)) was 1 (2.8%). For the same compound, the “TEAE SOC Gastrointestinal disorders, number of occurrences” value (overall (N = 36)) was 8, the “TEAE SOC Gastrointestinal disorders, subjects n (%)” value (overall (N = 36)) was 7 (19.4%) and the “TEAE SOC General disorders and administration site conditions, number of occurrences” value (overall (N = 36)) was 3. For the same compound, the “TEAE SOC General disorders and administration site conditions, subjects n (%)” value (overall (N = 36)) was 2 (5.6%), the “TEAE SOC Infections and infestations, number of occurrences” value (overall (N = 36)) was 1 and the “TEAE SOC Infections and infestations, subjects n (%)” value (overall (N = 36)) was 1 (2.8%). The “TEAE SOC Nervous system disorders, number of occurrences” value (overall (N = 36)) was 3, the “TEAE SOC Nervous system disorders, subjects n (%)” value (overall (N = 36)) was 3 (8.3%) and the “TEAE SOC Renal and urinary disorders, number of occurrences” value (overall (N = 36)) was 1. For the same compound, the “TEAE SOC Renal and urinary disorders, subjects n (%)” value (overall (N = 36)) was 1 (2.8%), the “TEAEs Not Related to study drug … (%)” value (overall (N = 36)) was 1 (2.8%) and the “TEAEs Not Related to study drug, number of occurrences” value (overall (N = 36)) was 4. For the same compound, the “TEAEs Related to study drug, number” value (overall (N = 36)) was 13, the “TEAEs … Mild, number of occurrences” value (overall (N = 36)) was 12 and the “TEAEs … Mild, subjects n (%)” value (overall (N = 36)) was 6 (16.7%). For the same compound, the “TEAEs … Moderate, number of occurrences” value (overall (N = 36)) was 4, the “TEAEs … Moderate, subjects n (%)” value (overall (N = 36)) was 3 (8.3%) and the “TEAEs by maximum severity: Severe, number of occurrences” value (overall (N = 36)) was 1. For the same compound, the “TEAEs … Severe, subjects n (%)” value (overall (N = 36)) was 1 (2.8%), the “Total number of SAEs reported” value (overall (N = 36)) was 1 and the “Total number of TEAEs reported” value (overall (N = 36)) was 17. The “Any TEAE, number of occurrences” value [2] was 4, the “Related TEAE Abdominal discomfort, subjects n (%)” value [2] was 0 and the “Related TEAE Diarrhea, number of occurrences” value [2] was 1. The “Related TEAE Diarrhea, subjects n (%)” value [2] was 1 (16.7%), the “Related TEAE Epigastric discomfort, subjects n (%)” value [2] was 0 and the “Related TEAE Fatigue, subjects n (%)” value [2] was 0. The “Related TEAE Haematuria, subjects n (%)” value [2] was 0, the “Related TEAE Headache, subjects n (%)” value [2] was 0 and the “Related TEAE Neutropenia, number of occurrences” value [2] was 1. The “Related TEAE Neutropenia, subjects n (%)” value [2] was 1 (16.7%), the “Related TEAE Pain, subjects n (%)” value [2] was 0 and the “Related TEAE Paraesthesia, subjects n (%)” value [2] was 0. The “SAEs Not related to study drug (strongest relationship), subjects n (%)” value [2] was 0, the “SAEs Related to study drug (strongest relationship), subjects” value [2] was 0 and the “Subjects reporting any SAEs, subjects n (%)” value [2] was 0. For the same compound, the “Subjects reporting any TEAE, subjects n (%)” value [2] was 2 (33.3%), the “TEAE Abdominal discomfort, subjects n (%)” value [2] was 0 and the “TEAE COVID-19, number of occurrences” value [2] was 1. The “TEAE COVID-19, subjects n (%)” value [2] was 1 (16.7%), the “TEAE Death, subjects n (%)” value [2] was 0 and the “TEAE Diarrhea, number of occurrences” value [2] was 1. For the same compound, the “TEAE Diarrhea, subjects n (%)” value [2] was 1 (16.7%), the “TEAE Epigastric discomfort, subjects n (%)” value [2] was 0 and the “TEAE Fatigue, subjects n (%)” value [2] was 0. The “TEAE Haematuria, subjects n (%)” value [2] was 0, the “TEAE Headache, number of occurrences” value [2] was 1 and the “TEAE Headache, subjects n (%)” value [2] was 1 (16.7%). The “TEAE Neutropenia, number of occurrences” value [2] was 1, the “TEAE Neutropenia, subjects n (%)” value [2] was 1 (16.7%) and the “TEAE Pain, subjects n (%)” value [2] was 0. For the same compound, the “TEAE Paraesthesia, subjects n (%)” value [2] was 0, the “TEAE SOC Blood and lymphatic system disorders, number of occurrences” value [2] was 1 and the “TEAE SOC Blood and lymphatic system disorders, subjects n (%)” value [2] was 1 (16.7%). For the same compound, the “TEAE SOC Gastrointestinal disorders, number of occurrences” value [2] was 1, the “TEAE SOC Gastrointestinal disorders, subjects n (%)” value [2] was 1 (16.7%) and the “TEAE SOC General disorders and administration site conditions, subjects n (%)” value [2] was 0. For the same compound, the “TEAE SOC Infections and infestations, number of occurrences” value [2] was 1, the “TEAE SOC Infections and infestations, subjects n (%)” value [2] was 1 (16.7%) and the “TEAE SOC Nervous system disorders, number of occurrences” value [2] was 1. For the same compound, the “TEAE SOC Nervous system disorders, subjects n (%)” value [2] was 1 (16.7%), the “TEAE SOC Renal and urinary disorders, subjects n (%)” value [2] was 0 and the “TEAEs Not Related to study drug … (%)” value [2] was 0. For the same compound, the “TEAEs Related to study drug (strongest relationship), subjects n (%)” value [2] was 2 (33.3%), the “TEAEs Related to study drug, number” value [2] was 2 and the “TEAEs … Mild, number of occurrences” value [2] was 2. The “TEAEs … Mild, subjects n (%)” value [2] was 1 (16.7%), the “TEAEs … Moderate, number of occurrences” value [2] was 2 and the “TEAEs … Moderate, subjects n (%)” value [2] was 1 (16.7%). The “TEAEs … Severe, subjects n (%)” value [2] was 0, the “Total number of SAEs reported” value [2] was 0 and the “Total number of TEAEs reported” value [2] was 4.
